Patent US20070122830A1, “Prohibitin-directed diagnostics and therapeutics for cancer and chemotherapeutic drug resistance” (Aurelium BioPharma Inc., priority 2005, published 2007)

What was measured:
[1] = tested on: prohibitin; test: Prohibitin silencing by siRNA in MCF-7 cells, anti-prohibitin immunoblot; assay type: cell-based, human; settings: MCF-7 cell line; FIG. 6
Source text: (§1) To establish the importance of prohibitin to the expression of the drug-resistant phenotype in MDA cell lines, prohibitin expression was silenced using RNAi. Briefly, the following siRNA duplexes targeting the human prohibitin mRNA were designed and purchased either from Ambion (Austin, Tex.) or Invitrogen (Carlsbad, Calif.). The siRNA duplex sequences corresponding to nucleotides 425 through 443 (GenBank SEQ ID NUMBER: U49725.1) targeting the start of the prohibitin mRNA transcript were:
(§2) For a typical siRNA transfection, 1 nmole of the annealed siRNA duplex was mixed with 1.4 ml of Opti-MEM reagent (Invitrogen). In another tube, […] of Oligofectamine reagent (Invitrogen, Carlsbad, Calif.) was mixed with […] of Opti-MEM. The two solutions were combined and mixed gently by inversion and incubated for 20 min. at RT. The resulting solution was added to the cultured cells drop by drop in a 10 cm dish (cells are approximately 40-50% confluent). The next day the transfected cells were trypsinized and seeded in 6 or 96-well plates and further incubated for the indicated amount of time (assay dependent) before further analysis.
(§3) Targeted silencing of prohibitin was performed as described in Example 2 above.

[2] = tested on: MCF-7/ADR xenografts; test: Mammary adenocarcinoma xenografts in nude mice, prohibitin siRNA plus chemotherapy; assay type: in vivo
Method: (§4) In further studies, the efficacy of a prohibitin-targeted therapeutic in treating mammary adenocarcinoma cells (MCF-7/AR) is assessed. Briefly, male […] nude mice 5 to 7 weeks old, weighing 18 g to 22 g, are used for the MCF-7/ADR xenografts. Mice receive a subcutaneous (s.c.) injection of the cells using 5×10^5 cells/inoculation under the shoulder. […] The animal's weight is measured every 4 days. Tumor growth starting on the first day of treatment is measured and the volume of the xenograft is monitored every 4 days. The mice are anaesthetized and sacrificed when the mean tumor weight is over 1 g in the control group. Tumor tissue is excised from the mice and its weight is measured. Tumor weights from mice treated with the prohibitin siRNA and chemotherapeutic drugs are compared to tumor weights from mice treated with control siRNA and chemotherapeutic drugs. Cell counts are compared. All experiments are performed in triplicate.
as §4, with “treating a” for “treating”, “(MCF-7)” for “(MCF-7/AR)”, “an s.c.” for “a subcutaneous (s.c.)”, “drugs.” for “drugs. Cell counts are compared. All experiments are performed in triplicate.”
In further studies, the efficacy of a prohibitin-targeted therapeutic in treating a mammary adenocarcinoma cells (MCF-7) is assessed. Briefly, male […] nude mice 5 to 7 weeks old, weighing 18 g to 22 g, are used for the MCF-7/ADR xenografts. Mice receive an s.c. injection of the cells using […] cells/inoculation under the shoulder.
Liposome formulations are produced as described previously (Shi et al. (2000) Proc. Natl. Acad. Sci. USA. 97(13): 7567-7572). Briefly, POPC ([…]), DDAB (0.2 μmol), DSPE-PEG 2000 (0.6 μmol), and DSPE-PEG 2000-maleimide (30 nmol) are dissolved in chloroform/methanol (2:1, vol:vol) […] a brief period of evaporation. The lipids are dispersed in 1 ml 0.05 M Tris-HCl buffer, pH 8.0, and are sonicated for 10 min. Prohibitin siRNA is added to the lipids. The liposome/siRNA dispersion is evaporated to a final concentration of 200 mM at a volume of 100 μl. The dispersion is frozen in ethanol/dry ice for 4 to 5 min. The dispersion is then thawed at 40° C. for 1 min. to 2 min., and this freeze-thaw cycle is repeated 10 times. The liposome dispersion is diluted to a lipid concentration of 40 mM, is followed by extrusion 10 times each through two stacks each of 400 nm, 200 nm, 100 nm, and 50 nm pore size polycarbonate membranes, by using a hand held extruder (Avestin, Ottawa). The mean vesicle diameters are determined by quasielastic light scattering using a Microtrac Ultrafine Particle Analyzer (Leeds-Northrup, St. Petersburg, Fla.).
The animal's weight is measured every 4 days. Tumor growth starting on the first day of treatment is measured and the volume of the xenograft is monitored every 4 days. The mice are anaesthetized and sacrificed when the mean tumor weight is over 1 g in the control group. Tumor tissue is excised from the mice and its weight is measured. Tumor weights from mice treated with the prohibitin siRNA and chemotherapeutic drugs are compared to tumor weights from mice treated with control siRNA and chemotherapeutic drugs.
In further studies, the efficacy of a prohibitin-targeted therapeutic in treating a mammary adenocarcinoma cells (MCF-7) is assessed. […]

[3] = tested on: prohibitin; test: Prohibitin silencing by siRNA in SKOV3 cells, anti-prohibitin immunoblot; assay type: cell-based, human; settings: for decrease in prohibitin: FIG. 7
Source text: as §1, §2, §3

[4] = Example 10, siRNA/liposome formulation
[5] = Example 11, siRNA/immunoliposome formulation

prohibitin siRNA: siRNA duplex to human prohibitin mRNA nt 425-443; sense 5′-GGAAGUGGUCUGUCUGUUAtt-3′, antisense 5′-UAACAGACAGACCACUUCCtt-3′ (sense GGAAGUGGUCUGUCUGUUATT; antisense UAACAGACAGACCACUUCCTT; chemistry not given here)
decrease in prohibitin expression as compared to mock siRNA [1]: 37%
total cell numbers of tumors vs control siRNA ([2]; Example 8, MCF-7/AR cells): lower
tumor weight vs control siRNA ([2]; Example 8, MCF-7/AR cells): smaller tumors by weight
total cell number in tumors vs control siRNA ([2]; Example 9, MCF-7): lower
tumor weight vs control siRNA ([2]; Example 9, MCF-7): smaller tumors by weight
total cell number in tumors vs control siRNA [2, 4]: lower
tumor weight vs control siRNA [2, 4]: smaller tumors by weight
total cell number in tumors vs control siRNA [2, 5]: lower
tumor weight vs control siRNA [2, 5]: smaller tumors by weight
repeat of prohibitin silencing ([3]; FIG. 8): confirmed, albeit with increased prohibitin expression
decrease in prohibitin ([3]; six days after treatment): 71%
decrease in prohibitin ([3]; three days after treatment): ~93%
